The values below come from patent US20200383985A1, “Inhibitors of Protease Activated Receptor-2” (Endosome Therapeutics, Inc., priority 2017, published 2020).

pIC50: −log10 of the molar value. Like-named read-outs stand apart in the source and are kept apart here. Bounds are passed on as bounds.

The pIC50 is the negative decadic logarithm of the IC50, by convention in mol/L. In general, inhibition refers to the share of the control response that was lost under treatment.

What all share (format): cell-based
The target of one assay is T1, PAR2 (Homo sapiens, UniProt P55085).
T1 construct: HT-29 cells and HEK293 cells, which express endogenous PAR2; endogenous in cells; host or cells: HT-29
T1 sequence (P55085 26-397): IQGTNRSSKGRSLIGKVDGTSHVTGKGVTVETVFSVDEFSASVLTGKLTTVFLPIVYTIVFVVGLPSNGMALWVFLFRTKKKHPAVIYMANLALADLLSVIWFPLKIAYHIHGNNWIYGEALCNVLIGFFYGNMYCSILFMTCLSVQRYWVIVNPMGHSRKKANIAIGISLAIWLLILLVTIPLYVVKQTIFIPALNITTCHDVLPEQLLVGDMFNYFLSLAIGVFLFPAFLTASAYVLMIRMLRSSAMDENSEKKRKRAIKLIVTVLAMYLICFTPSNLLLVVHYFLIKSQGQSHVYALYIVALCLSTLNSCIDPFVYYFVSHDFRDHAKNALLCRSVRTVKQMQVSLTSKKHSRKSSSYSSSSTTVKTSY
Kind of assay: IP1 accumulation assay in HT-29 cells (endogenous PAR2). As to conditions: 2F (300 nM)-induced IP1, HT-29 cells; for pIC50: read-out: HT-29 300 nM 2F (IC50); for IC50: read-out: HT-29 300 nM 2F pIC50 ± SEM (converted). The method, then:
(§1) KNRK-hPAR2, KNRK or HT-29 cells were seeded at a density of 50×10^3 cells/well in a clear poly-d-lysine coated 96 well tissue culture plate. Following 24 h incubation at 37° C. and 5% CO2, media was removed and replaced with 80 μl IP1 stimulation buffer (10 mM HEPES, 1 mM CaCl2, 0.5 mM MgCl2, 4.2 mM KCl, 146 mM NaCl, 5.5 mM glucose, 50 mM LiCl). Following stimulation buffer addition, the wells received 10 μl of 10× antagonists or DMSO vehicle. All plates were further incubated at 37° C., 5% CO2 for 30 min. 10 μl of 2F or ATP was added to the plates and further incubated for 40 min. Following incubation, stimulation buffer was quickly removed by aspiration and replaced with 25 μl lysis buffer (IP-One HTRF® assay kit, Cisbio). Following incubation of the lysates at 37° C., 5% CO2 for 10′, 10 μl lysate was transferred to a 384-well OptiPlate (PerkinElmer) and detected using the IP-One HTRF® assay kit (Cisbio).
(§2) Compounds of the invention (added at 10×concentrations in a 10 μL volume) were incubated for 30 min prior to the addition of 10 μM ATP or 100 nM or 300 nM PAR2 agonist (2F; EC80, added at 10×concentrations in a 10 μL volume) and then further incubated for 40 min. After lysis, the inositol phosphate 1 was quantified with IP-One HTRF® assay kit, Cisbio. The data was analysed with Prism, GraphPad to calculate the IC50 values, shown below in Table 1.
(§3) Inhibition of PAR2 signaling with known PAR2 inhibitor I-343 (FIG. 14A) was investigated in HT-29 cells and HEK293 cells, which express endogenous PAR2, and in KNRK cells expressing human (h) PAR2. Accumulation of inositol phosphate-1 (IP1) was measured in response to the PAR2-selective agonist 2-Furoyl-LIGRLO-NH2 (2F), an analogue of the trypsin-exposed tethered ligand, or trypsin.
(§4) KNRK-hPAR2, KNRK, HEK293, or HT-29 cells were seeded at a density of 50×10^3 cells/well onto clear 96-well plates (PerkinElmer). After 24 h of culture, medium was replaced with IP1 stimulation buffer (10 mM HEPES, 1 mM CaCl2, 0.5 mM MgCl2, 4.2 mM KCl, 146 mM NaCl, 5.5 mM glucose, 50 mM LiCl; 37° C., 5% CO2.). Cells were pre-incubated with the antagonist or vehicle for 30 min prior to the addition of agonist. Cells were then further incubated for 40 min. Stimulation buffer was […]

A further assay deals with T2, human (h) PAR2 (Homo sapiens, UniProt P55085).
T2 construct: expressed in transfected cells; host or cells: KNRK cells (KNRK-hPAR2)
T2 sequence (P55085 26-397): T1 sequence (P55085 26-397)
The assay is described as follows: IP1 accumulation assay in KNRK-hPAR2 cells. As to conditions: for inhibition at 30 µM: 100 nM 2F, 30 μM of antagonist, read-out: KNRK-PAR2 100 nM 2F: ND (inhibition of 2F at 30 μM of antagonist); for IC50: 2F (100 nM)-induced IP1, KNRK-hPAR2 cells, read-out: KNRK-PAR2 100 nM 2F pIC50 ± SEM (converted). The method, then: as §1, §2, §3, §4

In another assay the test system is mouse DRG neurons. The assay is described as follows: Patch clamp rheobase of DRG neurons: protease-induced hyperexcitability of nociceptors.

As to `CC(C)(C)c1cc(-c2ccc(F)cc2)nn2cc(C(=O)N3CCN(C(=O)CCS(=O)(=O)O)CC3(C)C)nc12` [Compound 1, 3-(4-(8-(tert-butyl)-6-(4-fluorophenyl)imidazo[1,2-b]pyridazine-2-carbonyl)-3,3-dimethylpiperazin-1-yl)-3-oxopropane-1-sulfonic acid], the pIC50 at PAR2 is 5.23. In addition, the inhibition at 30 µM at human (h) PAR2 was less than 50%.

As to `CC(C)(C)c1cc(-c2ccc(F)cc2)nn2cc(C(=O)N3CCN(C(=O)c4cn(CC(=O)O)nn4)CC3(C)C)nc12` [Compound 2, 2-(4-(4-(8-(tert-butyl)-6-(4-fluorophenyl)imidazo[1,2-b]pyridazine-2-carbonyl)-3,3-dimethylpiperazine-1-carbonyl)-1H-1,2,3-triazol-1-yl)acetic acid], at PAR2, the pIC50 is 6.85 and the IC50 is 138 nM. Besides, on human (h) PAR2, the inhibition at 30 µM was less than 50%.

For the compound `CC(C)(C)c1cc(-c2ccc(F)cc2)nn2cc(C(=O)N3CCN(C(=O)[C@H]4CC[C@@H](C(=O)NC[C@H](O)[C@@H](O)[C@H](O)[C@H](O)CO)CC4)CC3(C)C)nc12` [Compound 3, (1S,4R)-4-(4-(8-(tert-butyl)-6-(4-fluorophenyl)imidazo[1,2-b]pyridazine-2-carbonyl)-3,3-dimethylpiperazine-1-carbonyl)-N-((2S,3R,4R,5R)-2,3,4,5,6-pentahydroxyhexyl)cyclohexane-1-carboxamide], at PAR2, the pIC50 is 7.40. The IC50 at PAR2 was 40.7 nM; at human (h) PAR2 it was greater than 10000 nM.

In the case of `CC(C)(C)c1cc(-c2ccc(F)cc2)cc2nc(C(=O)N3CCN(C(=O)CCC(=O)NC[C@H](O)[C@@H](O)[C@H](O)[C@H](O)CO)CC3(C)C)oc12` [Compound 4, 4-(4-(7-(tert-butyl)-5-(4-fluorophenyl)benzo[d]oxazole-2-carbonyl)-3,3-dimethylpiperazin-1-yl)-4-oxo-N-((2S,3R,4R,5R)-2,3,4,5,6-pentahydroxyhexyl)butanamide], the IC50 at PAR2 was greater than 10000 nM. The inhibition at 30 µM on human (h) PAR2 was less than 50%.

In the case of `CC(C)(C)c1cc(-c2ccc(F)cc2)nn2cc(C(=O)N3CCN(C(=O)c4cn(CC(=O)NCCOCCOCCO)nn4)CC3(C)C)nc12` [Compound 5, 2-(4-(4-(8-(tert-butyl)-6-(4-fluorophenyl)imidazo[1,2-b]pyridazine-2-carbonyl)-3,3-dimethylpiperazine-1-carbonyl)-1H-1,2,3-triazol-1-yl)-N-(2-(2-(2-hydroxyethoxy)ethoxy)ethyl)acetamide], the IC50 at PAR2 is 180 nM. Further, at human (h) PAR2, the inhibition at 30 µM is less than 50%.

Turning to `CC(C)(C)c1cc(-c2ccc(F)cc2)nn2cc(C(=O)N3CCN(C(=O)c4cn(CC(=O)NCCOCCOCCOCCOCCOCCO)nn4)CC3(C)C)nc12` [Compound 6, 2-(4-(4-(8-(tert-butyl)-6-(4-fluorophenyl)imidazo[1,2-b]pyridazine-2-carbonyl)-3,3-dimethylpiperazine-1-carbonyl)-1H-1,2,3-triazol-1-yl)-N-(17-hydroxy-3,6,9,12,15-pentaoxaheptadecyl)acetamide], at PAR2, the pIC50 was 6.01. The inhibition at 30 µM on human (h) PAR2 is less than 50%.

Regarding `CC(C)(C)c1cc(-c2ccc(F)cc2)nn2cc(C(=O)N3CCN(C(=O)[C@H]4CC[C@@H](NC(=O)[C@H](O)[C@@H](O)[C@@H](O)[C@H](O)C(N)=O)CC4)CC3(C)C)nc12` [Compound 7, (2R,3S,4R,5S)—N1-((1s,4S)-4-(4-(8-(tert-butyl)-6-(4-fluorophenyl)imidazo[1,2-b]pyridazine-2-carbonyl)-3,3-dimethylpiperazine-1-carbonyl)cyclohexyl)-2,3,4,5-tetrahydroxyhexanediamide], at PAR2, the pIC50 is 6.39 and the IC50 was 406 nM. In addition, the inhibition at 30 µM on human (h) PAR2 is less than 50%.

Consider `COC(=O)C12CCC(C(=O)N3CCN(C(=O)c4cn5nc(-c6ccc(F)cc6)cc(C(C)(C)C)c5n4)C(C)(C)C3)(CC1)CC2` [Compound 8, methyl 4-(4-(8-(tert-butyl)-6-(4-fluorophenyl)imidazo[1,2-b]pyridazine-2-carbonyl)-3,3-dimethylpiperazine-1-carbonyl)bicyclo[2.2.2]octane-1-carboxylate], for which the IC50 at PAR2 is 42.7 nM; on human (h) PAR2, greater than 10000 nM.

`CC(C)CCC[C@@H](C)[C@H]1CCC2C3CCC4C[C@@H](OC(=O)C[C@H](NC(=O)CCOCCOCCNC(=O)Cn5cc(C(=O)N6CCN(C(=O)c7cn8nc(-c9ccc(F)cc9)cc(C(C)(C)C)c8n7)C(C)(C)C6)nn5)C(N)=O)CC[C@]4(C)C3CC[C@@]21C` (stereo partly drawn) [Compound 9, (3S,10S,13R,17R)-10,13-dimethyl-17-((R)-6-methylheptan-2-yl)hexadecahydro-1H-cyclopenta[a]phenanthren-3-yl (14S)-1-(4-(4-(8-(tert-butyl)-6-(4-fluorophenyl)imidazo[1,2-b]pyridazine-2-carbonyl)-3,3-dimethylpiperazine-1-carbonyl)-1H-1,2,3-triazol-1-yl)-14-carbamoyl-2,12-dioxo-6,9-dioxa-3,13-diazahexadecan-16-oate]: at PAR2, the negative logarithm of the IC50 (pIC50) is 6.15. Also, on human (h) PAR2, the inhibition at 30 µM was less than 50%.

In the case of `CC(C)CCC[C@@H](C)[C@H]1CCC2C3CCC4C[C@@H](OC(=O)C[C@H](NC(=O)CCOCCOCCOCCOCCNC(=O)Cn5cc(C(=O)N6CCN(C(=O)c7cn8nc(-c9ccc(F)cc9)cc(C(C)(C)C)c8n7)C(C)(C)C6)nn5)C(N)=O)CC[C@]4(C)C3CC[C@@]21C` (stereo partly drawn) [Compound 11, (3S,10S,13R,17R)-10,13-dimethyl-17-((R)-6-methylheptan-2-yl)hexadecahydro-1H-cyclopenta[a]phenanthren-3-yl (20S)-1-(4-(4-(8-(tert-butyl)-6-(4-fluorophenyl)imidazo[1,2-b]pyridazine-2-carbonyl)-3,3-dimethylpiperazine-1-carbonyl)-1H-1,2,3-triazol-1-yl)-20-carbamoyl-2,18-dioxo-6,9,12,15-tetraoxa-3,19-diazadocosan-22-oate], the pIC50 at PAR2 was 6.01. In addition, the inhibition at 30 µM at human (h) PAR2 was less than 50%.

In the case of `CN(C)CCCn1cc(C2=C(c3c[nH]c4ccccc34)C(=O)NC2=O)c2ccccc21` [GF109203X], in the assay on mouse DRG neurons, the initial trypsin-induced hyperexcitability result is reported as “prevented” and the persistent trypsin-induced hyperexcitability entry is on record as “not”.

`CC(C)c1ccc(Cn2ccc3c4c(N)nc(NC5CC5)nc4ccc32)cc1` [SCH79797]: in the assay on mouse DRG neurons (1 μM), the “rheobase response to trypsin (PAR1 antagonist)” value is “did not affect” and the “rheobase, antagonist alone” value was “no effect”. For the same compound, the “thrombin-induced immediate decrease in rheobase” value in the assay with mouse DRG neurons (thrombin 50 nM, 20 min, antagonist 1 μM, 10 min preincubation) is on record as “prevented”.

In the case of thrombin, the rheobase after protease entry in the assay with mouse DRG neurons (trypsin 50 nM 10 min, NE 390 nM 30 min, CS 500 nM 60 min, thrombin 50 nM 20 min, washed) was “immediate decrease in rheobase”.
